What was measured:
Experiment in all cases: biochemical
Conditions in all cases: read-out: % inhibition mean (Lanthascreen)
ABL1 Q252H = ABL1 Q252H (Homo sapiens, UniProt P00519, Q252H)
ALK R1275Q = ALK R1275Q (Homo sapiens, UniProt Q9UM73, R1275Q)
AMPK (A1/B1/G2) = AMPK (A1/B1/G2) (Homo sapiens, UniProt Q13131)
AMPK (A2/B2/G2) = AMPK (A2/B2/G2) (Homo sapiens, UniProt P54646)
AXL R499C = AXL R499C (Homo sapiens, UniProt P30530, R499C)
BMPR1A (ALK3) = BMPR1A (ALK3) (Homo sapiens, UniProt P36894)
CAMKK2 (CaMKK beta) = CAMKK2 (CaMKK beta) (Homo sapiens, UniProt Q96RR4)
CDK13/cyclin K = CDK13/cyclin K (Homo sapiens, UniProt Q14004)
CDK2/cyclin E1 = CDK2/cyclin E1 (Homo sapiens, UniProt P24941)
CDK2/cyclin O = CDK2/cyclin O (Homo sapiens, UniProt P24941)
CLK4 = CLK4 (Homo sapiens, UniProt Q9HAZ1)
FGFR1 V561M = FGFR1 V561M (Homo sapiens, UniProt P11362, V561M)
FGFR3 G697C = FGFR3 G697C (Homo sapiens, UniProt P22607, G697C)
IRAK3 = IRAK3 (Homo sapiens, UniProt Q9Y616)
KIT D816H = KIT D816H (Homo sapiens, UniProt P10721, D816H)
KIT D816V = KIT D816V (Homo sapiens, UniProt P10721, D816V)
LIMK2 = LIMK2 (Homo sapiens, UniProt P53671)
MAP3K10 (MLK2) = MAP3K10 (MLK2) (Homo sapiens, UniProt Q02779)
MAP3K2 (MEKK2) = MAP3K2 (MEKK2) (Homo sapiens, UniProt Q9Y2U5)
MAPK9 (JNK2) = MAPK9 (JNK2) (Homo sapiens, UniProt P45984)
MYLK (MLCK) = MYLK (MLCK) (Homo sapiens, UniProt Q15746)
PKMYT1 = PKMYT1 (Homo sapiens, UniProt Q99640)
PRKACB (PRKAC beta) = PRKACB (PRKAC beta) (Homo sapiens, UniProt P22694)
RET G691S = RET G691S (Homo sapiens, UniProt P07949, G691S)
STK16 (PKL12) = STK16 (PKL12) (Homo sapiens, UniProt O75716)
STK32C (YANK3) = STK32C (YANK3) (Homo sapiens, UniProt Q86UX6)
TAOK1 = TAOK1 (Homo sapiens, UniProt Q7L7X3)
TEK (TIE2) R849W = TEK (TIE2) R849W (Homo sapiens, UniProt Q02763, R849W)

BMPR1A (ALK3), sequence (P36894 whole entry): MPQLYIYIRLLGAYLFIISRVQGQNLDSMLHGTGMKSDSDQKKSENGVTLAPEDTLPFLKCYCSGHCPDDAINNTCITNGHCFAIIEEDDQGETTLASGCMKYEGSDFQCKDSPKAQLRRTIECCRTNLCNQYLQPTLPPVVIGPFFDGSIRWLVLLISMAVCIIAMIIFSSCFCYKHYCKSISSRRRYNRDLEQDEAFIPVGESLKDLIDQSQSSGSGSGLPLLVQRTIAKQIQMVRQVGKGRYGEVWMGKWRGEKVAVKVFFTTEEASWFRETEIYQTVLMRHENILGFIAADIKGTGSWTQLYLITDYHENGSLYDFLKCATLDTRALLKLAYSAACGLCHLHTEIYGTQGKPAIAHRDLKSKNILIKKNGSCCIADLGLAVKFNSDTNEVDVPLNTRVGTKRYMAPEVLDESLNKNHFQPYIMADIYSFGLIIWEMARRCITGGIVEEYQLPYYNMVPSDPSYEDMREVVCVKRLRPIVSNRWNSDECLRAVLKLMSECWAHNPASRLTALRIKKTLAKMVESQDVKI
AMPK (A1/B1/G2), sequence (Q13131 whole entry): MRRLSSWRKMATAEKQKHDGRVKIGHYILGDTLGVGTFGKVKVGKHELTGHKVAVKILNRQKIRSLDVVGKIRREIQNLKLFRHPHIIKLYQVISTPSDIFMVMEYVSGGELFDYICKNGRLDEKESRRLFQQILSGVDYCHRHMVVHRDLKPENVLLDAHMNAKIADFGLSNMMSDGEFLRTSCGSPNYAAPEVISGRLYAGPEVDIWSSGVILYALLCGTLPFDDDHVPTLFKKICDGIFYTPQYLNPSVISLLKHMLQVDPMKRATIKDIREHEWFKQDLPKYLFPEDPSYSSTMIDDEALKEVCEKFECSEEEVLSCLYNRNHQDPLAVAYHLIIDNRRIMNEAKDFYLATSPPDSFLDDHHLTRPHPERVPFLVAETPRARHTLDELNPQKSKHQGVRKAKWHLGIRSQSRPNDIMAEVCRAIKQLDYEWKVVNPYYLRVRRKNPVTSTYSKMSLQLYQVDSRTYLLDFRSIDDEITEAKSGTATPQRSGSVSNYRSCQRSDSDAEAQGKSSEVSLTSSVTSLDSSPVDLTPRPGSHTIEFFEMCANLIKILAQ
AMPK (A1/B1/G2), sequence (Q9UGJ0 whole entry partner): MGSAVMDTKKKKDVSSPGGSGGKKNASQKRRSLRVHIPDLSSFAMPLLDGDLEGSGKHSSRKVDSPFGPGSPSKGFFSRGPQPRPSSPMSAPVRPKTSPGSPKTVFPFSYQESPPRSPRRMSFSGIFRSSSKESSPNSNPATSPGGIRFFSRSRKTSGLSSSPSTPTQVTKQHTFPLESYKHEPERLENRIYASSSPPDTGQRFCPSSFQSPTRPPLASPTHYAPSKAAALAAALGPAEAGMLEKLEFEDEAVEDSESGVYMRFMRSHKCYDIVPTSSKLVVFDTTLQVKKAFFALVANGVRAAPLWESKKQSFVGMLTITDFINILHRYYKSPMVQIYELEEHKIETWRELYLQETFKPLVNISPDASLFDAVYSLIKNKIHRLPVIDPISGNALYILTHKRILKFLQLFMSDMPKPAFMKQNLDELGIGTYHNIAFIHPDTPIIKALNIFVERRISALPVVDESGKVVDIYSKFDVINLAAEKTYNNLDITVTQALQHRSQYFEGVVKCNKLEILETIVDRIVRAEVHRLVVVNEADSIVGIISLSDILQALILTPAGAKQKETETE
AMPK (A1/B1/G2), sequence (Q9Y478 whole entry partner): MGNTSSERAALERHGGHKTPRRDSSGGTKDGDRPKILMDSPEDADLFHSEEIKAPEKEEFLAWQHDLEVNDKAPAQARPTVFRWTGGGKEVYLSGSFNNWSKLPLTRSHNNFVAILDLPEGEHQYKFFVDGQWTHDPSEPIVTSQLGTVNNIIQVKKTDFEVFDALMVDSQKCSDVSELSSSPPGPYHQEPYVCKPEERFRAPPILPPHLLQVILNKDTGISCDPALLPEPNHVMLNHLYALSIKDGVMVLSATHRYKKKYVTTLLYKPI
ALK R1275Q, sequence (Q9UM73 whole entry R1275Q): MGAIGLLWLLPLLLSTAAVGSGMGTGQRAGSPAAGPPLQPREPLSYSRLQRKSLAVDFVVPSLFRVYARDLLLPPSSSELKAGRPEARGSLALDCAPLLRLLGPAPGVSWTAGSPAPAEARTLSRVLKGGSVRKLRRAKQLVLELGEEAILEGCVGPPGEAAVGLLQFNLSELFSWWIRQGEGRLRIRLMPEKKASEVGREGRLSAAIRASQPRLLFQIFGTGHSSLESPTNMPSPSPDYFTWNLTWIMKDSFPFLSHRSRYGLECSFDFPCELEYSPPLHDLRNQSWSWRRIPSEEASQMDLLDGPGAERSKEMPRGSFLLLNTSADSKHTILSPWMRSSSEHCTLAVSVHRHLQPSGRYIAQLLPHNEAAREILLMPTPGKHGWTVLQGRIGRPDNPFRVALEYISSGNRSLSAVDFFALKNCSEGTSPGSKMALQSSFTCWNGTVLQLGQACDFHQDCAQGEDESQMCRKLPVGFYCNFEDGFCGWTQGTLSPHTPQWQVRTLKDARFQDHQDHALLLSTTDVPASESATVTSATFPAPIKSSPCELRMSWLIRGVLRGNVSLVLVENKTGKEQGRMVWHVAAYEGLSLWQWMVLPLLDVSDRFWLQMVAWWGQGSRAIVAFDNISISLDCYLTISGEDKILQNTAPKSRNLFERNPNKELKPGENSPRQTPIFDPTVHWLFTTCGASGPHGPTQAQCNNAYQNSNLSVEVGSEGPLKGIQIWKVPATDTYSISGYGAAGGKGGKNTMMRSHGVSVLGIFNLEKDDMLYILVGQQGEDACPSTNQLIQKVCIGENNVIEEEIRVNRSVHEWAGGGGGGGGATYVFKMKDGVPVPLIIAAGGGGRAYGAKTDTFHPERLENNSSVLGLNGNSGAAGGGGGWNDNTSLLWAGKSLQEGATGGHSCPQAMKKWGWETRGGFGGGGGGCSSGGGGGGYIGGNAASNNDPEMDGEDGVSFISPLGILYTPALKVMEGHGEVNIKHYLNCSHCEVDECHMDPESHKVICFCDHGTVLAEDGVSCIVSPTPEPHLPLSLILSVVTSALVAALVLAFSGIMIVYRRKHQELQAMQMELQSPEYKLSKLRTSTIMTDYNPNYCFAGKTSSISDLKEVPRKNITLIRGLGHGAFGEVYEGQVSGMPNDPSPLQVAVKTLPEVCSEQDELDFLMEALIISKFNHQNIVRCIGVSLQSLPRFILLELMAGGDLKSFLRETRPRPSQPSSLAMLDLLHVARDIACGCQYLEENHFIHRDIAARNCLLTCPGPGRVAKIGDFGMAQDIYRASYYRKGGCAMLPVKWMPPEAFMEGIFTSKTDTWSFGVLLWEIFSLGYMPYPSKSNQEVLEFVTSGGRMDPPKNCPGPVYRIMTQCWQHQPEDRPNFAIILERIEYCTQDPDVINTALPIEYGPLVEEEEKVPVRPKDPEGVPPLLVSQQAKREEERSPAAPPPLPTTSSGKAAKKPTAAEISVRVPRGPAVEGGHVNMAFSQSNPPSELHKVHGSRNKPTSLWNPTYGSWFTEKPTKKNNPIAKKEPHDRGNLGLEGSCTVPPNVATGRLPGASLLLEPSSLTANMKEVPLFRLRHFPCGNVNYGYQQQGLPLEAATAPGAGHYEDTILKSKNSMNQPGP
MAP3K2 (MEKK2), sequence (Q9Y2U5 whole entry): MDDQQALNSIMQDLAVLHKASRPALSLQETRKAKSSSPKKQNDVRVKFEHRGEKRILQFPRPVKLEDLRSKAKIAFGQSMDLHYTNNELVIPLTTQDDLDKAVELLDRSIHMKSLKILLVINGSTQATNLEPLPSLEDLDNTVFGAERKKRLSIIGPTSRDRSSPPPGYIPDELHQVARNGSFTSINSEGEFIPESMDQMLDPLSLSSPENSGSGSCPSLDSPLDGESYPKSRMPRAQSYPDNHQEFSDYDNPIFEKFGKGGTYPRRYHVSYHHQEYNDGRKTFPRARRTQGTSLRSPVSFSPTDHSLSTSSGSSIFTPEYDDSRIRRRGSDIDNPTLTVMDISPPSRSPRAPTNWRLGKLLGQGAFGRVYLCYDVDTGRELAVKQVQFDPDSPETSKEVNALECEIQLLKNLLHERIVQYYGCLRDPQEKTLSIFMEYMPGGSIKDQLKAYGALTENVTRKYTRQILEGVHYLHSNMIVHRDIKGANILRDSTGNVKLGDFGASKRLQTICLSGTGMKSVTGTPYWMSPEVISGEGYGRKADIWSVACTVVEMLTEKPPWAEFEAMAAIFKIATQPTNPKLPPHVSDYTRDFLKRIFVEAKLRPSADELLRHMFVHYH
IRAK3, sequence (Q9Y616 whole entry): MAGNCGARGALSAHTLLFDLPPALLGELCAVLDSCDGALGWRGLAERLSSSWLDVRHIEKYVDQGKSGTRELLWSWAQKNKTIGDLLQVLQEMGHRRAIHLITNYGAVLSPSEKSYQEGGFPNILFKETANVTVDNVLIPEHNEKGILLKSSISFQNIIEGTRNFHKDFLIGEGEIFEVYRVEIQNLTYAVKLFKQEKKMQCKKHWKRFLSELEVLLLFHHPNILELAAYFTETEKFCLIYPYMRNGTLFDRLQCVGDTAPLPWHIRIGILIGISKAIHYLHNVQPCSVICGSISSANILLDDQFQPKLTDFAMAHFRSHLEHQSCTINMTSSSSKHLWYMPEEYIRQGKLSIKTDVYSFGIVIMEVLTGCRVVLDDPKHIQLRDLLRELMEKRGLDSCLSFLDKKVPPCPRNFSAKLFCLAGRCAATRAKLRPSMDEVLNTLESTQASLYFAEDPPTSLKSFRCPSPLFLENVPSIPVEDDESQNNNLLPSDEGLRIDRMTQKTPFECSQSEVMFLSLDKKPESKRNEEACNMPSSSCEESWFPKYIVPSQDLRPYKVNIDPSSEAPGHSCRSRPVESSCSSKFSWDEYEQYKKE

COc1ccc2nc3cc(Cl)ccc3c(Nc3cc(CN4CCCC4)c(O)c(CN4CCCC4)c3)c2n1 [Pyronaridine, 4-[(7-Chloro-2-methoxybenzo[b][1,5]naphthyridin-10-yl)amino]-2,6-bis(1-pyrrolidinylmethyl)phenol phosphate (1:4)]
inhibition at 1 µM (ABL1 Q252H): -10%
inhibition at 1 µM (ALK R1275Q): 6%
inhibition at 1 µM (AMPK (A1/B1/G2)): -7%
inhibition at 1 µM (AMPK (A2/B2/G2)): 3%
inhibition at 1 µM (AXL R499C): 3%
inhibition at 1 µM (BMPR1A (ALK3)): 10%
inhibition at 1 µM (CAMKK2 (CaMKK beta)): -1%
inhibition at 1 µM (CDK13/cyclin K): -13%
inhibition at 1 µM (CDK2/cyclin E1): 0%
inhibition at 1 µM (CDK2/cyclin O): 2%
inhibition at 1 µM (CLK4): 6%
inhibition at 1 µM (FGFR1 V561M): 5%
inhibition at 1 µM (FGFR3 G697C): 7%
inhibition at 1 µM (IRAK3): -5%
inhibition at 1 µM (KIT D816H): -7%
inhibition at 1 µM (KIT D816V): -3%
inhibition at 1 µM (LIMK2): -1%
inhibition at 1 µM (MAP3K10 (MLK2)): 0%
inhibition at 1 µM (MAP3K2 (MEKK2)): 7%
inhibition at 1 µM (MAPK9 (JNK2)): 6%
inhibition at 1 µM (MYLK (MLCK)): 4%
inhibition at 1 µM (PKMYT1): 1%
inhibition at 1 µM (PRKACB (PRKAC beta)): 12%
inhibition at 1 µM (RET G691S): -3%
inhibition at 1 µM (STK16 (PKL12)): 5%
inhibition at 1 µM (STK32C (YANK3)): 1%
inhibition at 1 µM (TAOK1): -4%
inhibition at 1 µM (TEK (TIE2) R849W): -3%
